Where “and” joins values, the source holds several entries; their conditions need not be identical. Equal values may be shown once. Marks after values point to notes of the source that are not given here.
Columns and labels:
[1] = test system: DEN-induced liver fibrosis/cirrhosis; assay: DEN-induced rat model: fibrosis/cirrhosis by Ishak score of Masson's trichrome stained liver sections; format: in vivo, male Wistar rats; settings: for mode of Ishak score: vehicle mode 6; for range of Ishak score: vehicle range 2-6
Description: FIG. 2A is a bar graph depicting the Ishak score of male Wistar rats receiving weekly intraperitoneal injections of DEN (50 mg/kg) for 18 weeks and vehicle only (n=16), 0.5 mg/kg erlotinib (Erl 0.5; n=8), or 2 mg/kg erlotinib (Erl 2; n=8) during weeks 12-18.
FIG. 6A is a bar graph depicting the Ishak score of male Wistar rats receiving weekly intraperitoneal injections of DEN (50 mg/kg) for 18 weeks and vehicle only (n=8) or 18 mg/kg lapatinib (n=8) during weeks 12-18. *, significant.
(§1) Erlotinib is a drug used to treat non-small cell lung cancer and pancreatic cancer. Erlotinib specifically targets the EGFR, which is highly expressed and occasionally mutated in various forms of cancer, by binding to the adenosine triphosphate (ATP) binding site of the receptor (Raymond et al., Drugs 60 Suppl 1:15-23, 2000). To investigate erlotinib as a chemoprevention strategy for liver fibrogenesis, male Wistar rats were given a weekly intraperitoneal injection of 50 mg/kg DEN to induce cirrhosis and HCC (Lee et al., Korean J Hepatol 13:70-80, 2007). Erlotinib was administered by intraperitoneal injection daily (5× a week) during weeks 12-18 at a dose of 2 mg/kg, which is equivalent to chemotherapeutic dosing regimens in humans. […] In a separate study, the dose of erlotinib was lowered to 0.5 mg/kg.
(§2) Repeated injury to the liver causes damage to hepatocytes and activates resident macrophages called Kupffer cells. Damaged hepatocytes and activated Kupffer cells secrete cytokines and growth factors into the liver milieu, which activate hepatic stellate cells (Friedman, Gastroenterology 134:1655-69, 2008). Normally, hepatic stellate cells are quiescent and store vitamin A and fat. Upon activation, they differentiate into a myofibroblast-phenotype and express α-smooth muscle actin (α-SMA) (Friedman, Gastroenterology 134:1655-69, 2008). Activated hepatic stellate cells deposit fibrous collagen into the space of Disse acutely causing fibrosis and chronically causing cirrhosis. The degree of liver disease (fibrosis versus cirrhosis) is pathologically assessed through trichrome staining of collagen by the method of Ishak (Mod Pathol 7:690-713, 1994).
In early stages of liver fibrosis, collagen deposition is localized around the portal tracts (Ishak score 1 or 2), but it bridges between portal tracts at later stages of fibrosis (Ishak score 3 or 4) and ultimately forms nodules around regenerating hepatocytes during cirrhosis (Ishak score 5 or 6). Although there is some heterogeneity in this model, intraperitoneal administration of DEN causes, on average, an Ishak score 0.8 (range 0-2) fibrosis after 8 weeks, an Ishak score 4.1 (range 3-6) fibrosis/cirrhosis after 12 weeks, and an Ishak score 5.1 (range 4-6) cirrhosis after 18 weeks. Consistent with this, hepatic stellate cell activation increases over time after DEN administration as assessed by α-SMA staining.
Remarkably, erlotinib inhibited fibrogenesis. […] The range for 16 vehicle animals was 2-6 with a mode of 6 as illustrated in FIG. 2B. […] To further examine the effects of erlotinib on liver fibrosis, α-SMA staining was performed for activated hepatic stellate cells.
(§3) To investigate lapatinib as a chemoprevention strategy for liver fibrogenesis, male Wistar rats were given a weekly intraperitoneal injection of 50 mg/kg DEN to induce cirrhosis and HCC (Lee et al., Korean J Hepatol 13:70-80, 2007). Lapatinib was administered by intraperitoneal injection daily (5× a week) during weeks 12-18 at a dose of 18 mg/kg.
Similar to erlotinib, lapatinib inhibited fibrogenesis. […] To further examine the effects of lapatinib on liver fibrosis, α-SMA staining was performed for activated hepatic stellate cells.

[2] = test system: DEN-induced cirrhosis and HCC; assay: DEN-induced rat model of cirrhosis and HCC: tumor formation (tumor nodules) and gross liver appearance; format: in vivo, male Wistar rats; settings: for decrease of tumor formation: vs vehicle
Description: FIG. 1A is a bar graph depicting the number of tumor nodules in male Wistar rats receiving weekly intraperitoneal injections of 50 mg/kg diethylnitrosamine (DEN) for 18 weeks and vehicle only (n=16), 0.5 mg/kg erlotinib (Erl 0.5; n=8), or 2 mg/kg erlotinib (Erl 2; n=8) during weeks 12-18.
FIG. 5A is a bar graph depicting the number of tumor nodules in male Wistar rats receiving weekly intraperitoneal injections of 50 mg/kg DEN for 18 weeks and vehicle only (n=8) or 18 mg/kg lapatinib (n=8) during weeks 12-18. *, significant.
Given the lack of successful treatment options for HCC, chemoprevention in high-risk patients has been proposed as an alternative strategy (Llovet et al., Lancet 362:1907-17, 2003). Even though EGFR inhibition is not effective for chemotherapy, the data presented herein indicate that it is likely to be a good chemoprevention strategy. The diethylnitrosamine (DEN)-induced rat model of sequential cirrhosis and HCC has emerged as a promising tool for not only studying the course of chronic liver disease but also for testing putative chemopreventive agents as it better resembles disease progression in humans (Lee et al., Korean J Hepatol 13:70-80, 2007; Schiffer et al., Hepatology 41:307-14, 2005). In this model, DEN induces liver cirrhosis after 12 weeks and HCC at approximately 18 weeks allowing ample opportunity for preventative intervention.
as §1, §2, §3

[3] = test system: DEN-induced fibrosis and cirrhosis; assay: DEN-treated rats with liver biopsy before and after treatment (disease progression within the same animal); format: in vivo, male Wistar rats
Description: FIG. 3A is a scheme of the experiment. Male Wistar rats received weekly intraperitoneal injections of DEN (50 mg/kg) for 18 weeks. After 12 weeks, the rats underwent a survival hepatectomy and a liver biopsy was removed for histology. Rats then received vehicle or erlotinib (2 mg/kg) daily (5 days/week) during weeks 13-18. Rats were sacrificed at 19 weeks after a one-week washout of DEN. FIG. 3B is a bar graph showing Ishak scores from Masson's trichrome stains of liver sections from each animal. **p<0.01 compared to vehicle. FIG. 3C is a bar graph depicting the number of tumor nodules that were greater than 5 mm in diameter in rats that received vehicle or erlotinib. **p<0.01 compared to vehicle. FIG. 3D is a bar graph showing the weights of livers at the time of sacrifice expressed as percent body weight.
To further examine the ability of erlotinib to reverse fibrosis and cirrhosis, liver biopsies were performed on DEN-treated rats before and after they received erlotinib (FIG. 3A) to determine disease progression within the same animal.

advanced HCC = settings: recent clinical trials (Philip et al.; Thomas et al.); cited from earlier work

CS(=O)(=O)CCNCc1ccc(-c2ccc3ncnc(Nc4ccc(OCc5cccc(F)c5)c(Cl)c4)c3c2)o1 [lapatinib, 4-Quinazolinamine, N-(3-chloro-4-((3-fluorophenyl)methoxy)phenyl)-6-(5-(((2-(methylsulfonyl)ethyl)amino)methyl)-2-furanyl)]
average Ishak score ([1]; 18 mg/kg weeks 12-18, n=8, vehicle 5.6): 4.3 | decrease of tumor formation ([2]; 18 mg/kg i.p. daily (5x a week) weeks 12-18, DEN 50 mg/kg weekly for 18 weeks): greater than 50% | gross appearance of livers ([2]; 18 mg/kg weeks 12-18 (FIG. 5C) vs vehicle): not only exhibited less tumors, but also appeared less cirrhotic

C#Cc1cccc(Nc2ncnc3cc(OCCOC)c(OCCOC)cc23)c1 [erlotinib, 4-Quinazolinamine, N-(3-ethynylphenyl)-6,7-bis(2-methoxyethoxy)]
animals with reversed disease progression ([3]; 2 mg/kg weeks 13-18, eight animals): two out of eight | fibrosis and cirrhosis (Ishak, FIG. 3B) ([3]; 2 mg/kg weeks 13-18 vs vehicle): significantly less fibrosis and cirrhosis | tumorigenesis (tumor nodules greater than 5 mm, FIG. 3C) ([3]; 2 mg/kg weeks 13-18 vs vehicle): significant decrease in tumorigenesis | liver weight (percent body weight, FIG. 3D) ([3]; 2 mg/kg weeks 13-18 vs vehicle, at sacrifice): decrease in liver weight | Ishak 19 weeks, AVERAGE ([3]; average of 8 rats after 2 mg/kg weeks 13-18, vehicle 5.8): 4.3* | Change of Ishak score, AVERAGE ([3]; average of 8 rats, 2 mg/kg weeks 13-18, vehicle +2.2): +1 | Ishak 13 weeks, AVERAGE ([3]; average of 8 rats, biopsy before treatment, vehicle 3.6): 3.3 | Change of Ishak score ([3]; individual rats, 19 weeks vs 13 weeks, 2 mg/kg weeks 13-18, 2 mg/kg): +3 and +2 (3×) and −2 and −1 and +1 (2×) | Ishak 19 weeks ([3]; individual rats, after 2 mg/kg daily (5 days/week) weeks 13-18): 6 and 5 (2×) and 4 (3×) and 3 (2×) | Ishak 13 weeks ([3]; individual rats, biopsy before treatment (baseline)): 3 (4×) and 2 (2×) and 5 (2×) | disease control in advanced HCC patients (advanced HCC): improved disease control in only a minority | average Ishak score ([1]; 0.5 mg/kg weeks 12-18, n=8, vehicle 4.9): 4.3 | mode of Ishak score ([1]; 0.5 mg/kg weeks 12-18): 4 | range of Ishak score ([1]; 0.5 mg/kg weeks 12-18): 3-6 | average Ishak score ([1]; 2 mg/kg weeks 12-18, n=8, vehicle 4.9): 2.6 | mode of Ishak score ([1]; 2 mg/kg weeks 12-18): 2 | range of Ishak score ([1]; 2 mg/kg weeks 12-18): 1-4 | inhibition of tumor formation ([2]; 0.5 mg/kg i.p. daily weeks 12-18, DEN 50 mg/kg weekly for 18 weeks, separate study): 49% | decrease of tumor formation ([2]; 2 mg/kg i.p. daily (5x a week) weeks 12-18, DEN 50 mg/kg weekly for 18 weeks): 75% | gross appearance of livers ([2]; 0.5 and 2 mg/kg weeks 12-18 (FIGS. 1C, 1D) vs vehicle): not only exhibited less tumors, but also appeared less cirrhotic

— patent US9072741B2, “Methods of treating liver fibrosis and pre-cirrhosis with epidermal growth factor receptor inhibitors” (The General Hospital Corporation, priority 2009, dated 2015)
